Patent US9663565B2, “Insulinotropic peptide derivative with modified N-terminal charge” (HANMI PHARM. CO., LTD., priority 2013, dated 2017)

Legend:
[1] = system: GLP-1 receptor (hGLP-1R/GST); test: Binding activity with the GLP-1 receptor by surface plasmon resonance (BIACORE 3000), 1:1 Langmuir fitting; set-up: species or system human; conditions: SPR, hGLP-1R/GST immobilized to CM5 chip
Source text: The expressed hGLP-1R/GST was immobilized to a CM5 chip by amine coupling. […].

[2] = N-terminal charge at pH 7.4; format: physicochemical

GLP-1 receptor (hGLP-1R/GST), sequence (P43220 24-139 limits assumed): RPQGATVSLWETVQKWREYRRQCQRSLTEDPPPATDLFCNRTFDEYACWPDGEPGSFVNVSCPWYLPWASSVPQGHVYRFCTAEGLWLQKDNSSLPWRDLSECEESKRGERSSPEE

| Substance | Ka [1] | Kd [1] [nM] | kd [1] | N-terminal charge at pH 7.4 [2] |
| --- | --- | --- | --- | --- |
| DA-exendin-4-propyl-amide | 1.04 ± 0.11 1/Ms, ×10^5 | 32.6 ± 4.17 | 33.5 ± 1.40 1/s, ×10^4 | Neutral |
| beta-hydroxy imidazopropionyl-exendin-4 [HY-exendin-4] | 0.90 ± 0.07 1/Ms, ×10^5 | 42.7 ± 4.1 | 38.3 ± 1.92 1/s, ×10^4 | Neutral |
| imidazoacetyl-exendin-4 [CA-exendin-4] | 1.20 ± 0.11 1/Ms, ×10^5 | 26.3 ± 2.08 | 31.5 ± 0.56 1/s, ×10^4 | Neutral |
| desamino-histidyl-exendin-4 [DA-exendin-4] | 1.13 ± 0.08 1/Ms, ×10^5 | 32.2 ± 1.89 | 36.5 ± 1.40 1/s, ×10^4 | Neutral |
